Patent US12503451B2, “2-arylthiazole derivative or salt thereof, preparation method therefor, and pharmaceutical composition comprising same” (HEXAPHARMATEC CO., LTD., priority 2020, dated 2025)
Counter-ions that a name gives are not always drawn. Like-named read-outs stand apart in the source and are kept apart here.

What was measured:
[1] = system: primary mouse cortical neuron cells; assay: Autophagic vesicle formation (CYTO-ID Autophagy Detection Kit); format: cell-based; details: for Cyto-ID fluorescence value (relative intensity): 24 hours, untreated control = 1; for Autophagic vesicle formation compared to rapamycin (in words): at ½ concentration of rapamycin (5 μM vs 10 μM)
Experimental: Autophagy lysosomal pathway (ALP) activation by the compounds of the present invention was verified, through measuring the degree of autophagic vesicle formation in neuron cells with the CYTO-ID™ Autophagy Detection Kit (ENZ-51031-K200, Enzo Life Sciences, Inc.). Neuron cells (i.e., primary mouse cortical neuron cells) were isolated from mice using an enzymatic digest method. Specifically, primary mouse cortical neuron cells were isolated by incubating the cortice tissues derived from 16 day embryonic C57BL6 mice, at 37° C. for 30 minutes, with 20 U/ml papain (Worthington Biochemical Corporation, LK003176) and 0.005% DNase I (Worthington Biochemical Corporation, LK003170).
The primary mouse cortical neuron cells (8×10^4 cells) and a medium (a neural cell culture media containing 2 mM L-glutamine (Gibco, 25030-081), N2 supplement (Gibco, 17502-048), B27 supplement (Gibco, 17504-044), and 50 μg/ml penicillin-streptomycin (Gibco, 15140-122)) were added to each well of a 96-well plate and then incubated overnight at 37° C. in a CO2 incubator. The compound of Example 10 (5 μM), the compound of Example 29 (5 μM), and rapamycin (10 μM) were respectively treated to the cells, which were incubated at 37° C. in a CO2 incubator for 24 hours. After each well was washed with 1×Assay Buffer (Enzo Life Science, ENZ-51031-K200), 0.2 μl of Cyto-ID autophagy dye and 0.1 μl of Hoechst 33342 were treated to the cells, which were incubated at 37° C. in a CO2 incubator for 30 minutes. After each well was washed with 1×Assay Buffer (Enzo Life Science, ENZ-51031-K200), the fluorescence values of Cyto-ID (EX: 480 nm, EM: 530 nm) and Hoechst 33342 (EX: 340 nm, EM: 480 nm) were respectively measured with a fluorometer. Three wells were tested for each group. After normalization was carried out through dividing the Cyto-ID fluorescence value of each well by Hoechst 33342 fluorescence value, each relative intensity was calculated by setting that of the untreated control to 1.

[2] = system: N2a cells; assay: Autophagy flux by electron microscope imaging; format: cell-based, mouse; details: for Numbers of the autophagy per cell: Autolysosome / Numbers of the autophagy per cell: Autophagic vesicles / Numbers of the autophagy per cell: Autophagosome: 24 hours
Experimental: N2a cells (ATCC, CCL-131, mouse neuroblastoma cell line) (3×10^4 cells) and a medium (DMEM (Dulbecco's modified Eagle's medium, Gibco, 11995-065) supplemented with 5% heat-inactivated fetal bovine serum, FBS; Gibco, 16000-044) and 50 μg/ml penicillin-streptomycin (Gibco, 15140-122) were added to each well of a 6-well plate and incubated overnight at 37° C. in a CO2 incubator. The compound of Example 29 (5 μM) and rapamycin (10 μM) were respectively treated and then incubated at 37° C. in a CO2 incubator for 24 hours. Three wells per each group were subject to electron microscope block formation and then pre-fixation, post-fixation, dehydration, substitution, and embedding were carried out according to a flat-embedding method. After ultra-thin sections having a thickness of 70 nm were prepared, heavy metal staining (uranyl acetate, lead citrate) was carried out on the each section, which was photographed through a mosaic imaging technique for imaging the entire cells. In addition, the results obtained by measuring the numbers of the total autophagies (autophagic vesicles), autophagosomes, and autolysosomes per cell according to the treatment groups are shown in Table 3 below. In Table 3 below, the control means the untreated control.

[3] = system: primary mouse cortical neuron cells; assay: Inhibitory activity against neuronal apoptosis by beta amyloid (CCK-8), neuron cells; format: cell-based; details: Cortical neurone, read-out: Cell viability (%) (Neuron cells)
Experimental: (§1) The inhibitory activities of the compounds of the present invention against neuronal apoptosis by beta amyloid, known as the major cytotoxic substance in neurodegenerative diseases, were analyzed in N2a cells (ATCC, CCL-131, mouse neuroblastoma cell line) and neuron cells (primary mouse cortical neuron cells) isolated in the same manners as in Test Example 2. The media used in Test Example 3 and Test Example 2 were used as a medium for the N2a cells and as a medium for the neuron cells, respectively. Specifically, N2a cells (3×10^4 cells) and neuron cells (8×10^4 cells), along with the respective media, were added to each well of a 96-well plate and then incubated overnight at 37° C. in a CO2 incubator. The cells were treated with the compound of Example 10 and the compound of Example 29 at the concentrations of 5 μM and 500 nM, respectively, treated with 20 μM of beta amyloid after 30 minutes therefrom, and then incubated at 37° C. in a CO2 incubator for 72 hours. The cells were treated with 10 μL of CCK-8 reagent (Enzo Life Science, ALX-850-039-KI02) and then incubated at 37° C. in a CO2 incubator for 2 hours. Three wells were tested for each group and each absorbance was measured at 450 nm. The absorbance value of the untreated control group was set to 100% cell viability. The cell viability of each group was calculated from the respective absorbance values.

[4] = system: N2a cells; assay: Inhibitory activity against neuronal apoptosis by beta amyloid (CCK-8), N2a cells; format: cell-based, mouse; details: for viability at 5 µM: Mus musculus, N2a, read-out: Cell viability (%) (N2a cells); for Inhibition of cytotoxicity caused by beta amyloid treatment (in words): Table 9: N2a cells 5 μM and neuron cells 500 nM
Experimental: as §1

[5] = system: dimethylnitrosamine (DMN)-induced liver injury male SD rats; assay: Liver function-improving activities by oral administration in the liver injury model (2); format: in vivo, rat
Experimental: Specifically, 7-week-old male SD rats (Orient Bio, Korea) were accommodated to the laboratory environment at room temperature for 7 days. General symptoms were observed and then only healthy animals were used for the experiment. The rats were divided into 5 groups (n=10 for each group), i.e., the normal control group, the group to which only DMN is administered, and the group to which both the compound of the present invention (the compound of Example 23, 26, or 29) and DMN are administered. DMN was dissolved in purified water and then administered intraperitoneally at the dose of 10 mg/kg for 3 consecutive days per week (3 times per week, for 4 weeks). Blood samples were collected after the completion of the fourth-week liver injury inducement and then the serum ALT (Alanine Transaminase) values and the serum AST (Aspartate Transaminase) values were measured so as to confirm the liver injury thereof. […] Blood samples were collected on Day 0 (1 day after the completion of the fourth-week liver injury inducement) and Day 7, 14, 21 and 28 after the administration of the test materials. The collected blood was injected into a vacutainer tube containing a clot activator and then allowed to stand at room temperature for about 20 minutes so as to coagulate each blood sample. After centrifugation for 10 minutes, the resulting serums were subjected to blood-biochemical tests. In addition, at 24 hours after the last administration, an autopsy for hepatectomy and fixation was performed to prepare the tissue specimens thereof. After preparing the slides with the tissue specimens, hematoxylin and eosin (H&E) staining was performed thereon for microscopic observation of damages to liver tissue and inflammatory cell infiltrations in liver tissues. In addition, Masson's trichrome staining was also performed thereon for microscopic observation of collagen fiber depositions in liver tissues. The results obtained from the measurements were subject to group comparison, through parametric multiple comparisons or non-parametric multiple comparisons, with SPSS. When P<0.05, it was determined to be statistically significant. […] Therefore, it can be confirmed that the compounds of the present invention have excellent treating activity against liver fibrosis. […] From the results of FIG. 4, the degrees of damage to liver tissue and inflammatory cell infiltration in liver tissues were measured. And also, from the results of FIG. 4, the degree of collagen fiber deposition in liver tissues was measured.

[6] = system: N2a cells; assay: Inhibitory activities against mitochondrial damage by rotenone (XF Cell Mito Stress Test); format: cell-based, mouse; details: 5 μM + 10 μM rotenone
Experimental: The inhibitory activities of the compounds of the present invention against mitochondrial damage by rotenone, known as the major cytotoxic substance in neurodegenerative diseases, were analyzed in N2a cells (ATCC, CCL-131, mouse neuroblastoma cell line). Specifically, N2a cells (3×10^4 cells) and a medium (DMEM (Dulbecco's modified Eagle's medium, Gibco, 11995-065) supplemented with 5% heat-inactivated fetal bovine serum (FBS; Gibco, 16000-044) and 50 μg/ml penicillin-streptomycin (Gibco, 15140-122) were added to each well of a XF24-well culture plate and then incubated overnight at 37° C. in a CO2 incubator. The cells were treated with the compound of Example 10 (5 μM), treated with 10 μM of rotenone after 30 minutes therefrom, and then incubated at 37° C. in a CO2 incubator for 24 hours. After the treatment with a XF Cell Mito Stress Test Kit (Seahorse Bioscience, 103015-100) according to the manufacturer's instructions, the level of mitochondrial respiration was measured, using an XF24 Extracellular Flux Analyzer (Seahorse Bioscience). Four wells were tested for each group; and the basal respiration, the ATP production, the maximal respiration, and the spare respiratory capacity were measured. The levels of each mitochondrial respiration were normalized by the protein quantification value. The basal respiration of the untreated control group was set to 100% and the remaining values are shown. In Table 10, the control group represents a group treated with only 10 μM of rotenone.

[7] = 0 week (Day 0, after 4 weeks DMN, before administration)
[8] = 1 week, 25 mg/kg oral once a day after 4 weeks DMN
[9] = 2 weeks, 25 mg/kg oral once a day after 4 weeks DMN
[10] = 3 weeks, 25 mg/kg oral once a day after 4 weeks DMN
[11] = 4 weeks, 25 mg/kg oral once a day after 4 weeks DMN
[12] = 24 hours, basal respiration of untreated control = 100%

Q: What does the source list for `CO[C@H]1C[C@@H]2CC[C@@H](C)[C@@](O)(O2)C(=O)C(=O)N2CCCC[C@H]2C(=O)O[C@H]([C@H](C)C[C@@H]2CC[C@@H](O)[C@H](OC)C2)CC(=O)[C@H](C)/C=C(\C)[C@@H](O)[C@@H](OC)C(=O)[C@H](C)C[C@H](C)/C=C/C=C/C=C/1C` [Rapamycin, rapamycin, reference compound]?
A: Cyto-ID fluorescence value (relative intensity) ([1]; 10 μM): 1.668; Numbers of the autophagy per cell: Autolysosome ([2]; 10 μM): 7.6; Numbers of the autophagy per cell: Autophagic vesicles ([2]; 10 μM): 13.3; Numbers of the autophagy per cell: Autophagosome ([2]; 10 μM): 4.1

Q: Which viability at 0.5 µM ([3]; 72 h) does the source give for `CCN(CC)CCOc1ccc(-c2nc(C)c(C(=O)NCC3(N(C)C)CCOCC3)s2)cc1C#N.Cl.Cl` [Example 29, N-((4-(dimethylamino)tetrahydro-2H-pyran-4-yl)methyl)-2-(4-(2-diethylamino)ethoxy-3-cyanophenyl)-4-methylthiazole-5-carboxamide hydrochloride] here?
A: 53.3%

Q: What about the viability at 5 µM ([4]; 72 h) of the same compound?
A: 68.5%

Q: And the “Inhibition of cytotoxicity caused by beta amyloid treatment (in words)” value [4]?
A: significantly inhibit the cytotoxicity caused by beta amyloid treatment

Q: And the “ALT values (average value)” value [5, 7]?
A: 219.29 U/L

Q: And the “AST values (average value)” value [5, 7]?
A: 376.67 U/L

Q: And the “ALT values (average value)” value [5, 8]?
A: 99.31 U/L

Q: What about the “AST values (average value)” value [5, 8] of the same compound?
A: 164.60 U/L

Q: What about the “ALT values (average value)” value [5, 9] of the same compound?
A: 66.57 U/L

Q: What about the “AST values (average value)” value [5, 9] of the same compound?
A: 143.87 U/L

Q: And the “ALT values (average value)” value [5, 10]?
A: 53.03 U/L

Q: What about the “AST values (average value)” value [5, 10] of the same compound?
A: 127.65 U/L

Q: And the “ALT values (average value)” value [5, 11]?
A: 52.97 U/L

Q: What about the “AST values (average value)” value [5, 11] of the same compound?
A: 123.33 U/L

Q: What about the “Cyto-ID fluorescence value (relative intensity)” value ([1]; 5 μM) of the same compound?
A: 2.171

Q: And the “Autophagic vesicle formation compared to rapamycin (in words)” value [1]?
A: significantly increase autophagic vesicle formation

Q: What about the “Numbers of the autophagy per cell: Autolysosome” value ([2]; 5 μM) of the same compound?
A: 14.9

Q: What about the “Numbers of the autophagy per cell: Autophagic vesicles” value ([2]; 5 μM) of the same compound?
A: 22.3

Q: And the “Numbers of the autophagy per cell: Autophagosome” value ([2]; 5 μM)?
A: 6.9

Q: And the “Autophagic vesicle and autolysosome formation compared to rapamycin (in words)” value ([2]; at ½ concentration of rapamycin (5 μM vs 10 μM))?
A: significantly increase autophagic vesicle formation, especially autolysosome formation

Q: With `Cc1nc(-c2ccc(OCC(C)C)c(C#N)c2)sc1C(=O)NCC1(N(C)C)CCOCC1` [Example 10, N-((4-(dimethylamino)tetrahydro-2H-pyran-4-yl)methyl)-2-(3-cyano-4-isobutoxyphenyl)-4-methylthiazole-5-carboxamide hydrochloride] as the compound, how does the viability at 0.5 µM ([3]; 500 nM, 20 μM beta amyloid, 72 hours, untreated control = 100%) read?
A: 52.2%

Q: And the viability at 5 µM ([4]; 5 μM, 20 μM beta amyloid, 72 hours, untreated control = 100%)?
A: 68.9%

Q: And the “Inhibition of cytotoxicity caused by beta amyloid treatment (in words)” value [4]?
A: significantly inhibit the cytotoxicity caused by beta amyloid treatment

Q: And the “Recovery of mitochondrial damage by rotenone treatment (in words)” value [6]?
A: recovers the mitochondrial damage by rotenone treatment in a statistically significant level

Q: And the “Mitochondrial respiration (%): ATP production” value [6, 12]?
A: 31.65%

Q: And the “Mitochondrial respiration (%): Basal” value [6, 12]?
A: 51.69%

Q: What about the “Mitochondrial respiration (%): Maximal” value [6, 12] of the same compound?
A: 62.28%

Q: And the “Mitochondrial respiration (%): Spare” value [6, 12]?
A: 16.33%

Q: And the “Cyto-ID fluorescence value (relative intensity)” value ([1]; 5 μM)?
A: 1.813

Q: And the “Autophagic vesicle formation compared to rapamycin (in words)” value [1]?
A: significantly increase autophagic vesicle formation
